The source of these data is ChEMBL document CHEMBL1955798, “Novel coumarins and 2-thioxo-coumarins as inhibitors of the tumor-associated carbonic anhydrases IX and XII” (Bioorg Med Chem, 2012).

The target of one experiment is Carbonic anhydrase 2 (Homo sapiens, UniProt P00918). The experiment in a line: Inhibition of human carbonic anhydrase 2 after 6 hrs by stop-flow CO2 hydration assay.
The target of another experiment is Carbonic anhydrase 9 (Homo sapiens, UniProt Q16790). The experiment in a line: Inhibition of human carbonic anhydrase 9 after 6 hrs by stop-flow CO2 hydration assay.
The target of another experiment is Carbonic anhydrase 1 (Homo sapiens, UniProt P00915). The experiment in a line: Inhibition of human carbonic anhydrase 1 after 6 hrs by stop-flow CO2 hydration assay.
The target of another experiment is Carbonic anhydrase 12 (Homo sapiens, UniProt O43570). The experiment in a line: Inhibition of human carbonic anhydrase 12 after 6 hrs by stop-flow CO2 hydration assay.
Sequence of Carbonic anhydrase 12 (O43570 whole entry): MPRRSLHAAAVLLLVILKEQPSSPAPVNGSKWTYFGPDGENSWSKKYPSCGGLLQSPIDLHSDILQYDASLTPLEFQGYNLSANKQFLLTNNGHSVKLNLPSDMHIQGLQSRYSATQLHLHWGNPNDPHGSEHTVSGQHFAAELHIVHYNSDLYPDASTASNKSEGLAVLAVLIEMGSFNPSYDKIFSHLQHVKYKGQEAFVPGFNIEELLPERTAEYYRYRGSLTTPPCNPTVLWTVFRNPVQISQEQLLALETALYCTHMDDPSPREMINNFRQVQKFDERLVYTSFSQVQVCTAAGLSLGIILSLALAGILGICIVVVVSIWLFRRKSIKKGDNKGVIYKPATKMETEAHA

Sequence of Carbonic anhydrase 1 (P00915 whole entry): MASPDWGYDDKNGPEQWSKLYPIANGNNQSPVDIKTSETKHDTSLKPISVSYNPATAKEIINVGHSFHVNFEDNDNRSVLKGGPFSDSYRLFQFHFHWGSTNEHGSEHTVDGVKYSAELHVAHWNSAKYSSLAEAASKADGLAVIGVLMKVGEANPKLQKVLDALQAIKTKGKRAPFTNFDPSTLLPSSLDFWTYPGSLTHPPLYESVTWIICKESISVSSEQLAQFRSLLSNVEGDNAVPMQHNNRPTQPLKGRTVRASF

Regarding `CC(C)(C)[Si](C)(C)Oc1ccc2ccc(=S)oc2c1`, the Ki at Carbonic anhydrase 2 was above 200 µM; at Carbonic anhydrase 9, 960 nM. For `Cc1ccc(S(=O)(=O)OCCOc2ccc3ccc(=O)oc3c2)cc1`, in that order: above 200 µM and 530 nM. The corresponding values for `C=CCOc1ccc2ccc(=S)oc2c1` are above 200 µM and 3230 nM. `Oc1ccc2ccc(=S)oc2c1`: the Ki is above 200 µM at Carbonic anhydrase 2 and 780 nM at Carbonic anhydrase 9. As for `C=CCOc1cc(=O)oc2ccccc12`, the Ki at Carbonic anhydrase 2 is above 200 µM; on Carbonic anhydrase 9, 210 nM. For `Oc1ccc2oc(=S)ccc2c1`, the Ki on Carbonic anhydrase 9 is 800 nM. As to `C=CCOc1ccc2oc(=O)ccc2c1`, the Ki was above 200 µM on Carbonic anhydrase 2 and 930 nM at Carbonic anhydrase 9. In the case of `C=CCOc1ccc2oc(=S)ccc2c1`, the inhibition constant Ki on Carbonic anhydrase 9 stood at 3260 nM. With `CC(C)(C)[Si](C)(C)Oc1ccc2oc(=O)ccc2c1`, the affinity at Carbonic anhydrase 9, expressed as Ki, was 800 nM. Take `CC(=O)Nc1ccc2c(C)cc(=O)oc2c1`: the Ki on Carbonic anhydrase 2 is above 200 µM; at Carbonic anhydrase 9, 390 nM. `Cc1cc(C)cc(NC(=O)Nc2ccc3c(C)cc(=O)oc3c2)c1` came in with a Ki on Carbonic anhydrase 2 above 200 µM. With `C=CCOc1ccc2ccc(=O)oc2c1` [7-ALLYLOXYCOUMARIN], the Ki at Carbonic anhydrase 1 was 72.9 µM; on Carbonic anhydrase 2, above 200 µM; on Carbonic anhydrase 9, 730 nM; at Carbonic anhydrase 12 it was 640 nM.

`CC(C)(C)[Si](C)(C)Oc1ccc2oc(=S)ccc2c1`: the inhibition constant (Ki) on Carbonic anhydrase 2 is above 200 µM; on Carbonic anhydrase 9 it was 860 nM. Regarding `O=c1ccc2ccc(OCCO)cc2o1`, the Ki was above 200 µM on Carbonic anhydrase 2 and 920 nM at Carbonic anhydrase 9.

Take `O=c1ccc2ccc(OCCF)cc2o1`: the Ki at Carbonic anhydrase 2 was above 200 µM; on Carbonic anhydrase 9 it was 680 nM. As for `C=CCOc1cc(=S)oc2ccccc12`, the Ki at Carbonic anhydrase 2 is above 200 µM. Turning to `Cc1cc(=O)oc2cc(NC(=O)OC(C)(C)C)ccc12`, the Ki on Carbonic anhydrase 2 was above 200 µM; at Carbonic anhydrase 9 it was 970 nM.
